One may read the IC50 as the midpoint of a concentration-inhibition curve.

The target in the assay is human NaV 1.8 (Homo sapiens, UniProt Q9Y5Y9). Nature of the assay: E-VIPR assay detecting and measuring NaV inhibition properties. The format is cell-based. As to conditions: HEK cells expressing truncated human NaV 1.8; no human serum; read-out: IC50 in the E-VIPR Assay. Put shortly:
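Membrane potential was followed by coumarin/oxonol FRET during electrical field stimulation of matrigel-seeded HEK cells carrying truncated human NaV1.8 plus KIR2.1. Dosing used 11 points, 3-fold steps, top 300 nM final, 0.625% DMSO, with or without 25% human serum.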

Sequence of human NaV 1.8 (Q9Y5Y9 126-399 limits assumed): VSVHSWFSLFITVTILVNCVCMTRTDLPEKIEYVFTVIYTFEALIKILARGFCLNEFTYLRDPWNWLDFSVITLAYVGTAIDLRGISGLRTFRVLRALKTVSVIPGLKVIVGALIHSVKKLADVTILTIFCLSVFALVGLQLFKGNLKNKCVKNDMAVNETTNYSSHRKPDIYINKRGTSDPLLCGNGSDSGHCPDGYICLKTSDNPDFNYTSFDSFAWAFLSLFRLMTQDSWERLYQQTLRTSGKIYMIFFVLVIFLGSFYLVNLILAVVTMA
Sequence of human NaV 1.8 (Q9Y5Y9 660-890 limits assumed): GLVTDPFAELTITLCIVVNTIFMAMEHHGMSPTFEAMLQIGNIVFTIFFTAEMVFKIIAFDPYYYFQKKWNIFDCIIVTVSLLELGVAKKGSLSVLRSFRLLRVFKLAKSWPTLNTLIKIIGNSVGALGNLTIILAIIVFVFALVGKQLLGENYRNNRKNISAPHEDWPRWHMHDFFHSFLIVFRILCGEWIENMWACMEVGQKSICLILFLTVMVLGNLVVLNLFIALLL
Sequence of human NaV 1.8 (Q9Y5Y9 1148-1722 limits assumed): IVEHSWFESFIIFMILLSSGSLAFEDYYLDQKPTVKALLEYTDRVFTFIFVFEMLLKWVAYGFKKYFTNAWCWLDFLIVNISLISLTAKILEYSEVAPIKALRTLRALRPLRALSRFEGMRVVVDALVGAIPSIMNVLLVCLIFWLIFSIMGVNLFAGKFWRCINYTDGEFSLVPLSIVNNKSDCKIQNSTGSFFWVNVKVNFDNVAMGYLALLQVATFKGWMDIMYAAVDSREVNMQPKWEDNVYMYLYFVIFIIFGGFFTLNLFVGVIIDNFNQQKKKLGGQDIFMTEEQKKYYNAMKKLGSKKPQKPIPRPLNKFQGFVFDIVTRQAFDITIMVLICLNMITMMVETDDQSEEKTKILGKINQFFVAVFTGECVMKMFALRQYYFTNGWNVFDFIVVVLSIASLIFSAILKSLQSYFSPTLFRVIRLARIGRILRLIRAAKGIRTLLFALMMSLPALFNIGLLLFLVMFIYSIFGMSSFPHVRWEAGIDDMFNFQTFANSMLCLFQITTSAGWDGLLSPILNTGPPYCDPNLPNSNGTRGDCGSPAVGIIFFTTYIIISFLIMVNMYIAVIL

For `COc1c([C@H]2[C@H](C(=O)Nc3cc(C(N)C(C)(C)OC)ncc3F)O[C@@](C)(C(F)(F)F)[C@H]2C)ccc(F)c1F` (single isomer, unassigned) [Compound 356, rel-(2R*,3S*,4S*,5R*)-N-(2-(1-amino-2-methoxy-2-methylpropyl)-5-fluoropyridin-4-yl)-3-(3,4-difluoro-2-methoxyphenyl)-4,5-dimethyl-5-(trifluoromethyl)-tetrahydrofuran-2-carboxamide], the IC50 was in the range of 10 to 100 nM.

For the compound `COc1c([C@@H]2[C@@H](C(=O)Nc3ccc(C(N)=O)nc3)O[C@](C)(C(F)(F)F)[C@@H]2C)cccc1C(F)(F)F` (stereo in doubt) [Compound 157, rel-5-((2S,3R,4R,5S)-3-(2-methoxy-3-(trifluoromethyl)phenyl)-4,5-dimethyl-5-(trifluoromethyl)tetrahydrofuran-2-carboxamido)picolinamide], the IC50 is ≥ 1000 nM.

For the compound `COCCOc1c([C@H]2[C@H](C(=O)Nc3ccnc(CO)c3)O[C@@](C)(C(F)(F)F)[C@H]2C)ccc(F)c1F` [Compound 639, (2R,3S,4S,5R)-3-(3,4-difluoro-2-(2-methoxyethoxy)phenyl)-N-(2-(hydroxymethyl)pyridin-4-yl)-4,5-dimethyl-5-(trifluoromethyl)tetrahydrofuran-2-carboxamide], the IC50 was < 10 nM.

On to `COc1c([C@H]2[C@H](C(=O)Nc3cc(C4CNCCO4)ncc3F)O[C@@](C)(C(F)(F)F)[C@H]2C)ccc(F)c1F` (single isomer, unassigned) [Compound 350, rel-(2R*,3S*,4S*,5R*)-3-(3,4-difluoro-2-methoxyphenyl)-N-(5-fluoro-2-(morpholin-2-yl)pyridin-4-yl)-4,5-dimethyl-5-(trifluoromethyl)-tetrahydrofuran-2-carboxamide], for which the IC50 was 10 to 100 nM.

With `COc1nc(C(F)F)ccc1[C@@H]1[C@@H](C(=O)Nc2ccc(C(N)=O)nc2)O[C@](C)(C(F)(F)F)[C@@H]1C` (stereo in doubt) [Compound 735, rel-5-((2S,3R,4R,5S)-3-(6-(difluoromethyl)-2-methoxypyridin-3-yl)-4,5-dimethyl-5-(trifluoromethyl)tetrahydrofuran-2-carboxamido)picolinamide], the IC50 was ≥ 1000 nM.

In the case of `COc1c([C@H]2[C@H](C(=O)Nc3ccn4c(C)ncc4c3)O[C@@](C)(C(F)(F)F)[C@H]2C)ccc(F)c1F` [Compound 315, (2R,3S,4S,5R)-3-(3,4-difluoro-2-methoxyphenyl)-4,5-dimethyl-N-(3-methylimidazo[1,5-a]pyridin-7-yl)-5-(trifluoromethyl)-tetrahydrofuran-2-carboxamide], the IC50 was < 10 nM.

Consider `COc1c([C@H]2[C@H](C(=O)Nc3cc(C(O)CN(C)C)ncc3F)O[C@@](C)(C(F)(F)F)[C@H]2C)ccc(F)c1F` (single isomer, unassigned) [Compound 370, rel-(2R*,3S*,4S*,5R*)-3-(3,4-difluoro-2-methoxyphenyl)-N-(2-(2-(dimethylamino)-1-hydroxyethyl)-5-fluoropyridin-4-yl)-4,5-dimethyl-5-(trifluoromethyl)tetrahydrofuran-2-carboxamide], for which the IC50 was < 10 nM.

As for `COc1c([C@H]2[C@H](C(=O)Nc3cn(C(F)F)nc3C)O[C@@](C)(C(F)(F)F)[C@H]2C)ccc(F)c1F` [Compound 311, (2R,3S,4S,5R)-3-(3,4-difluoro-2-methoxyphenyl)-N-(1-(difluoromethyl)-3-methyl-1H-pyrazol-4-yl)-4,5-dimethyl-5-(trifluoromethyl)tetrahydrofuran-2-carboxamide], the IC50 is < 10 nM.

For the compound `C[C@H]1[C@@H](c2ccc(F)c(F)c2OC(F)F)[C@H](C(=O)Nc2ccnc(CO)c2)O[C@@]1(C)C(F)(F)F` (single isomer, unassigned) [Compound 92], the IC50 was < 10 nM.

As to `COc1c([C@H]2[C@H](C(=O)Nc3ccnc(N4CC(N)CC4=O)c3)O[C@@](C)(C(F)(F)F)[C@H]2C)ccc(F)c1F` (single isomer, unassigned) [Compound 495, rel-(2R*,3S*,4S*,5R*)-N-(2-(4-amino-2-oxopyrrolidin-1-yl)pyridin-4-yl)-3-(3,4-difluoro-2-methoxyphenyl)-4,5-dimethyl-5-(trifluoromethyl)tetrahydrofuran-2-carboxamide], the IC50 is < 10 nM.

As for `COc1c([C@H]2[C@H](C(=O)Nc3cc(CO)n(C)n3)O[C@@](C)(C(F)(F)F)[C@H]2C)ccc(F)c1F` [Compound 263, (2R,3S,4S,5R)-3-(3,4-difluoro-2-methoxyphenyl)-N-(5-(hydroxymethyl)-1-methyl-1H-pyrazol-3-yl)-4,5-dimethyl-5-(trifluoromethyl)tetrahydrofuran-2-carboxamide], the IC50 is 100 to 1000 nM.

Take `COc1c([C@H]2[C@H](C(=O)Nc3ccnc(C(O)C(F)F)c3)O[C@@](C)(C(F)(F)F)[C@H]2C)ccc(F)c1F` (single isomer, unassigned) [Compound 254, rel-(2R*,3S*,4S*,5R*)-N-(2-(2,2-difluoro-1-hydroxyethyl)pyridin-4-yl)-3-(3,4-difluoro-2-methoxyphenyl)-4,5-dimethyl-5-(trifluoromethyl)tetrahydrofuran-2-carboxamide]: the IC50 was < 10 nM.

`CNC(CO)c1cc(NC(=O)[C@@H]2O[C@@](C)(C(F)(F)F)[C@@H](C)[C@H]2c2ccc(F)c(F)c2OC)ccn1` (single isomer, unassigned) [Compound 232]: the IC50 was < 10 nM.

With `COCCOc1c([C@H]2[C@H](C(=O)Nc3ccnc(C(O)CO)c3)O[C@@](C)(C(F)(F)F)[C@H]2C)ccc(F)c1F` (stereo partly drawn) [Compound 647, (2R,3S,4S,5R)-3-[3,4-difluoro-2-(2-methoxyethoxy)phenyl]-N-[2-(1,2-dihydroxyethyl)-4-pyridyl]-4,5-dimethyl-5-(trifluoromethyl)tetrahydrofuran-2-carboxamide], the IC50 was < 10 nM.

As to `Cc1ncc(NC(=O)[C@@H]2O[C@@](C)(C(F)(F)F)[C@@H](C)[C@H]2c2ccc(F)c(F)c2OCCO)cn1` [Compound 569, (2R,3S,4S,5R)-3-(3,4-difluoro-2-(2-hydroxyethoxy)phenyl)-4,5-dimethyl-N-(2-methylpyrimidin-5-yl)-5-(trifluoromethyl)tetrahydrofuran-2-carboxamide], the IC50 fell in the range of 100 to 1000 nM.

For the compound `COc1c([C@H]2[C@H](C(=O)Nc3cc(N4C(=O)CN(C)C[C@H]4C)ncn3)O[C@@](C)(C(F)(F)F)[C@H]2C)ccc(F)c1F` [Compound 513], the 50% inhibitory concentration (IC50) fell in the range of 10 to 100 nM.

As for `COc1c([C@H]2[C@H](C(=O)NCC(O)c3cnn(C)c3)O[C@@](C)(C(F)(F)F)[C@H]2C)ccc(F)c1F` (stereo partly drawn) [Compound 301, (2R,3S,4S,5R)-3-(3,4-difluoro-2-methoxyphenyl)-N-(2-hydroxy-2-(1-methyl-1H-pyrazol-4-yl)ethyl)-4,5-dimethyl-5-(trifluoromethyl)tetrahydrofuran-2-carboxamide], the IC50 is ≥ 1000 nM.

On to `C[C@H]1[C@@H](c2ccc(F)c(F)c2O)[C@H](C(=O)Nc2ccnc(CO)c2)O[C@@]1(C)C(F)(F)F` [Compound 638, (2R,3S,4S,5R)-3-(3,4-difluoro-2-hydroxyphenyl)-N-(2-(hydroxymethyl)pyridin-4-yl)-4,5-dimethyl-5-(trifluoromethyl)tetrahydrofuran-2-carboxamide], for which the IC50 lay within 10 to 100 nM.

Values taken from patent US20240368135A1 (VERTEX PHARMACEUTICALS INCORPORATED, priority 2021, published 2024).
